Test results reported in US8921397B2, “Benzofurane-piperidine compounds” (Hoffmann-La Roche Inc., priority 2011, dated 2014).

Experiments:
human D2 receptor = human D2 receptor (Homo sapiens (Human), UniProt P14416); experiment: Radioligand binding ([3H]-spiperone) to human D2 receptor, HEK293 EBNA membranes; conditions: HEK293 EBNA cells expressing human D2 receptor
Description: (§1) HEK293 EBNA cells were transiently transfected with expression plasmids encoding for the human D2 or D3 or for the human 5-HT2A receptor, respectively. The cells were harvested 48 h post-transfection, washed three times with cold PBS and stored at −80° C. prior to use. The pellet was suspended in cold 50 mM Tris-HCl buffer containing 10 mM EDTA (pH 7.4) and was homogenized with a Polytron (Kinematica AG, Basel, Switzerland) for 20-30 sec at 12.000 rpm. After centrifugation at 48.000×g for 30 min at 4° C., the pellet was resuspended in cold 10 mM Tris-HCl buffer containing 0.1 mM EDTA (pH 7.4), homogenized, and centrifuged as above. This pellet was further resuspended in a smaller volume of ice cold 10 mM Tris-HCl buffer containing 0.1 mM EDTA (pH 7.4) and homogenized with a Polytron for 20-30 sec at 12.000 rpm. The protein content of this homogenate was determined with the Bio-Rad (Bradford) Protein Assay (Biorad Laboratories GmbH, München, Germany) according to the instructions of the manufacturer using gamma globulin as the standard. This homogenate was stored at −80° C. in aliquots and thawed immediately prior to use.
(§2) Aliquots of membrane preparations were thawed at RT, resuspended in assay buffer (D2, D3: 50 mM Tris-HCl, 120 mM NaCl, 5 mM MgCl2, 1 mM EDTA, 5 mM KCl, 1.5 mM CaCl2, pH=7.4; 5-HT2A: 50 mM Tris-HCl, 10 mM MgCl2, 1 mM EGTA, pH=7.4), homogenized with a Polytron for 20-30 sec at 12.000 rpm and adjusted to a final concentration of approximately 7.5 μg protein/well (D2, D3) and 15 μg protein/well (5-HT2A), respectively.
(§3) The binding affinity (Ki) of the compounds was determined using radioligand binding.
(§4) Membranes were incubated in a total volume of 200 μl with a fixed concentration of radioligand (final concentration approximately 0.7 nM [^3H]-spiperone for D2, 0.5 nM [^3 H]-spiperone for D3, and 1.1 nM [^3H]-ketanserin for 5-HT2A) and ten concentrations of test compound in ranging between 10 μM-0.1 nM for 1 h at RT. At the end of the incubation, the reaction mixtures were filtered on to unifilter 96-well white microplates with bonded GF/C filters (Packard BioScience, Zürich, Switzerland; preincubated for 1 h in 0.1% polyethylenimine (PEI) in assay buffer) with a Filtermate 196 harvester (Packard BioScience) and washed 3 times with cold assay buffer. The nonspecific binding was determined with equally composed reaction mixtures in the presence of 10 μM unlabelled spiperone. Per well 45 μl of Microscint 40 (Perkin Elmer, Schwerzenbach, Switzerland) was added, plates for sealed, shaken for 20 min and counted for 3 min on a Topcount Microplate Scintillation Counter (Canberra Packard SA, Zürich, Switzerland) with quenching correction.
(§5) The CPM value for each duplicate of a concentration of competing compound was averaged (y1), then the % specific binding was calculated according to the equation (((y1−non-specific)/(total binding−non-specific))×100). Graphs were plotted with the % specific binding using XLfit, a curve-fitting program that iteratively plots the data using Levenberg-Marquardt algorithm. The single site competition analysis equation used was y=A+((B−A)/(1+((x/C)D))), where y is the % specific binding, A is the minimum y, B is the maximum y, C is the IC50, x is the log 10 of the concentration of the competing compound and D is the slope of the curve (the Hill Coefficient). From these curves the IC50 (inhibition concentration at which 50% specific binding of the radioligand was displaced) and Hill coefficient were determined. The affinity constant (Ki) was calculated using the Cheng-Prusoff equation Ki=(IC50/1+([L]/Kd), where [L] is the concentration of radioligand and Kd is the dissociation constant of the radioligand at the receptor as determined by the saturation isotherm.

human D3 receptor = human D3 receptor (Homo sapiens (Human), UniProt P35462); experiment: Radioligand binding ([3H]-spiperone) to human D3 receptor, HEK293 EBNA membranes; conditions: HEK293 EBNA cells expressing human D3 receptor
human D3 receptor, sequence (P35462 whole entry): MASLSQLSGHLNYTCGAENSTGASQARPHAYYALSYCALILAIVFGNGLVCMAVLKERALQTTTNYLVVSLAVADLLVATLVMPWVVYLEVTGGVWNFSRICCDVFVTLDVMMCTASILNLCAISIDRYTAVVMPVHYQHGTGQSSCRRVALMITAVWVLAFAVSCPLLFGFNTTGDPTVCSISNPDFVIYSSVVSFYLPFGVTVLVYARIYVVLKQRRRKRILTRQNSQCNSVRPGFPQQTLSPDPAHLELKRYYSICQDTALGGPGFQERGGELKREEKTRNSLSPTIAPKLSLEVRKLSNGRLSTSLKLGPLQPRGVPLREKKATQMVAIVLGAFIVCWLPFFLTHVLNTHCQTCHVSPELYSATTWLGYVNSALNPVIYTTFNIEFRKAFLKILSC
Description: as §1, §2, §3, §4, §5

human 5-HT2A receptor = human 5-HT2A receptor (Homo sapiens (Human), UniProt P28223); experiment: Radioligand binding ([3H]-ketanserin) to human 5-HT2A receptor, HEK293 EBNA membranes; conditions: HEK293 EBNA cells expressing human 5-HT2A receptor
human 5-HT2A receptor, sequence (P28223 whole entry): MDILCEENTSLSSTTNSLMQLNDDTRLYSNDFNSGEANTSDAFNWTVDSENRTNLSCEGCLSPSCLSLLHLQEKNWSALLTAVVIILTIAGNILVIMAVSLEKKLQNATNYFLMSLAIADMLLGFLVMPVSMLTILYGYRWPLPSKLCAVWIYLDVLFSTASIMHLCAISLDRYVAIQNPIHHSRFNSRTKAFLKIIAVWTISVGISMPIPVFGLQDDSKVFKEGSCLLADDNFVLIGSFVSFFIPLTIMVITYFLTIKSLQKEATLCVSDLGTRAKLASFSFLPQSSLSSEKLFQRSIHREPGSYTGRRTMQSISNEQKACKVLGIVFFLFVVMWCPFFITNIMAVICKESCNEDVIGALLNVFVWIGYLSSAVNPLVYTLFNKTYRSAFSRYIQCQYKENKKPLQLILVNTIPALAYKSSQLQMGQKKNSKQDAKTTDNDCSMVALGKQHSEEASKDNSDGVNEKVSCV
Description: The ability of the compounds to bind to the 5-HT2A, D3 and D2 receptors was determined using radioligand binding to cloned receptors selectively expressed in HEK-293 EBNA cells.
as §1, §2, §3, §4, §5

human D2 receptor, sequence (P14416 whole entry): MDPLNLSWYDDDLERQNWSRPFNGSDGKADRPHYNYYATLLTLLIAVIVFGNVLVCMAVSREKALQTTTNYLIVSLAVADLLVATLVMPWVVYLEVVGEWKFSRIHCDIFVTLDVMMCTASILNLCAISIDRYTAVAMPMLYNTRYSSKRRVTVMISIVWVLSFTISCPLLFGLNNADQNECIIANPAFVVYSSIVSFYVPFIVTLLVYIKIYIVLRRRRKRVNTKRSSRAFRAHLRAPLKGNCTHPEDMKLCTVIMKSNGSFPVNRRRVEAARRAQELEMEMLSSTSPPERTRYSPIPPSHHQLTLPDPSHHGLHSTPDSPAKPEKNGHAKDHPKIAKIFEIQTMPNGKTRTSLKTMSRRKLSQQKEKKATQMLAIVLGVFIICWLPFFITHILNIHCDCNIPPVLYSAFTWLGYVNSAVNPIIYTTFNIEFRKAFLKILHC

| SMILES | Ki (human D2 receptor) [nM] | Ki (human D3 receptor) [nM] | Ki (human 5-HT2A receptor) [nM] | melting point [°C] |
| --- | --- | --- | --- | --- |
| O=C(N[C@H]1CC[C@H](CCN2CCC(c3coc4ccccc34)CC2)CC1)c1ccc(N2CCCCC2)cc1 [Example 51, trans-N-{4-[2-(4-Benzofuran-3-yl-piperidin-1-yl)-ethyl]-cyclohexyl}-4-piperidin-1-yl-benzamide] | 345 | 4.39 | 6.85 | 221 |
| COCCC(=O)N[C@H]1CC[C@H](CCN2CCC(c3coc4ccccc34)CC2)CC1 [Example 2, trans-N-{4-[2-(4-Benzofuran-3-yl-piperidin-1-yl)-ethyl]-cyclohexyl}-3-methoxy-propionamide] | 71.2 | 1.22 | 4.63 | 136 |
| CC(C)(C)c1ccc(S(=O)(=O)N[C@H]2CC[C@H](CCN3CCC(c4coc5ccccc45)CC3)CC2)cc1 [Example 88, trans-N-{4-[2-(4-Benzofuran-3-yl-piperidin-1-yl)-ethyl]-cyclohexyl}-4-tert-butyl-benzenesulfonamide] | 70 | 12.1 | 31.5 | 171 |
| CC#CC(=O)N[C@H]1CC[C@H](CCN2CCC(c3coc4ccccc34)CC2)CC1 [Example 55, But-2-ynoic acid trans-{4-[2-(4-benzofuran-3-yl-piperidin-1-yl)-ethyl]-cyclohexyl}-amide] | 25.6 | 2.09 | 7.89 | 161 |
| O=C(CC1CCOCC1)N[C@H]1CC[C@H](CCN2CCC(c3coc4ccccc34)CC2)CC1 [Example 4, trans-N-{4-[2-(4-Benzofuran-3-yl-piperidin-1-yl)-ethyl]-cyclohexyl}-2-(tetrahydro-pyran-4-yl)-acetamide] | 77.6 | 3.14 | 5.37 | 175 |
| O=C(N[C@H]1CC[C@H](CCN2CCC(c3coc4ccccc34)CC2)CC1)c1ccc(N2CCOCC2)cc1 [Example 13, trans-N-{4-[2-(4-Benzofuran-3-yl-piperidin-1-yl)-ethyl]-cyclohexyl}-4-morpholin-4-yl-benzamide] | 406 | 7.4 | 11.1 | 249 |
| CC(C)CCC(=O)N[C@H]1CC[C@H](CCN2CCC(c3coc4ccccc34)CC2)CC1 [Example 45, 4-Methyl-pentanoic acid trans-{4-[2-(4-benzofuran-3-yl-piperidin-1-yl)-ethyl]-cyclohexyl}-amide] | 66 | 2.9 | 13.1 | 179 |
| O=C(N[C@H]1CC[C@H](CCN2CCC(c3coc4ccccc34)CC2)CC1)C1CC1(F)F (stereo partly drawn) [Example 30, 2,2-Difluoro-cyclopropanecarboxylic acid trans-{4-[2-(4-benzofuran-3-yl-piperidin-1-yl)-ethyl]-cyclohexyl}-amide] | 28.1 | 3.53 | 8.59 | 189 |
| O=C(N[C@H]1CC[C@H](CCN2CCC(c3coc4ccccc34)CC2)CC1)C1(O)CC1 [Example 22, 1-Hydroxy-cyclopropanecarboxylic acid trans-{4-[2-(4-benzofuran-3-yl-piperidin-1-yl)-ethyl]-cyclohexyl}-amide] | 47.5 | 1.48 | 3.05 | 200 |
| O=C(CC1COC1)N[C@H]1CC[C@H](CCN2CCC(c3coc4ccccc34)CC2)CC1 [Example 76, trans-N-{4-[2-(4-Benzofuran-3-yl-piperidin-1-yl)-ethyl]-cyclohexyl}-2-oxetan-3-yl-acetamide] | 34.2 | 1.64 | 5.25 | 197 |
| Cc1cc(CC(=O)N[C@H]2CC[C@H](CCN3CCC(c4coc5ccccc45)CC3)CC2)on1 [Example 10, trans-N-{4-[2-(4-Benzofuran-3-yl-piperidin-1-yl)-ethyl]-cyclohexyl}-2-(3-methyl-isoxazol-5-yl)-acetamide] | 83.6 | 0.68 | 7.71 | 165 |
| CC(C)(C)CC(=O)N[C@H]1CC[C@H](CCN2CCC(c3coc4ccccc34)CC2)CC1 [Example 40, trans-N-{4-[2-(4-Benzofuran-3-yl-piperidin-1-yl)-ethyl]-cyclohexyl}-3,3-dimethyl-butyramide] | 53 | 4.35 | 10.4 | 174 |
| O=C(N[C@H]1CC[C@H](CCN2CCC(c3coc4ccccc34)CC2)CC1)C1CCC1 [Example 20, Cyclobutanecarboxylic acid trans-{4-[2-(4-benzofuran-3-yl-piperidin-1-yl)-ethyl]-cyclohexyl}-amide] | 38 | 1.85 | 5.56 | 180 |
| O=C(N[C@H]1CC[C@H](CCN2CCC(c3coc4ccccc34)CC2)CC1)c1ccc(N2CCOCC2)nc1 [Example 65, trans-N-{4-[2-(4-Benzofuran-3-yl-piperidin-1-yl)-ethyl]-cyclohexyl}-6-morpholin-4-yl-nicotinamide] | 51.8 | 3.49 | 7.56 | 215 |
| CC(C)c1ccc(C(=O)N[C@H]2CC[C@H](CCN3CCC(c4coc5ccccc45)CC3)CC2)cc1 [Example 83, trans-N-{4-[2-(4-Benzofuran-3-yl-piperidin-1-yl)-ethyl]-cyclohexyl}-4-isopropyl-benzamide] | 402 | 4.8 | 2.6 | 188 |
| O=C(N[C@H]1CC[C@H](CCN2CCC(c3coc4ccccc34)CC2)CC1)C1CC1 [Example 27, Cyclopropanecarboxylic acid trans-{4-[2-(4-benzofuran-3-yl-piperidin-1-yl)-ethyl]-cyclohexyl}-amide] | 22.7 | 2.69 | 4.3 | 204 |
| CO[C@H]1CC[C@H](CC(=O)N[C@H]2CC[C@H](CCN3CCC(c4coc5ccccc45)CC3)CC2)CC1 [Example 72, trans-N-{4-[2-(4-Benzofuran-3-yl-piperidin-1-yl)-ethyl]-cyclohexyl}-2-trans-(4-methoxy-cyclohexyl)-acetamide] | 67.4 | 3.09 | 8.14 | 179 |
| O=C(N[C@H]1CC[C@H](CCN2CCC(c3coc4ccccc34)CC2)CC1)C1CCOC1 (mixture of isomers) [Example 17, (RS)-Tetrahydro-furan-3-carboxylic acid trans-{4-[2-(4-benzofuran-3-yl-piperidin-1-yl)-ethyl]-cyclohexyl}-amide] | 53 |  | 5.93 | 183 |
| O=C(CC1COCCO1)N[C@H]1CC[C@H](CCN2CCC(c3coc4ccccc34)CC2)CC1 (mixture of isomers) [Example 8, trans-N-{4-[2-(4-Benzofuran-3-yl-piperidin-1-yl)-ethyl]-cyclohexyl}-(RS)-2-[1,4]dioxan-2-yl-acetamide] |  | 2.02 | 2.04 | 172 |
